Data: ChEMBL document CHEMBL5131538 (J Med Chem, 2022)

Assays:
[1] = Total clearence in Sprague-Dawley rat at 1 mg/kg, iv; format: ADME, organism-based; conditions: in vivo
Rattus norvegicus [2] = assay: (§1) Organ protective activity in aldosterone-induced uninephrectomized Sprague-Dawley rat model assessed as degeneration of arteries and perivascular fibrosis in heart by measuring pathological lesion score at 3 mg/kg/day by sirius red and H and E staining based histological analysis (reference value: 1.6 +/- 0.4); format: functional
[3] = AUC (0 to infinity) in Sprague-Dawley rat at 3 mg/kg, po; format: ADME, organism-based; parameters: time infinity, dose 3 mg/kg, route po; conditions: in vivo
Rattus norvegicus [4] = assay: (§2) Organ protective activity in aldosterone-induced uninephrectomized Sprague-Dawley rat model assessed as myocardial fibrosis in heart by measuring pathological lesion score at 1 mg/kg/day by sirius red and H and E staining based histological analysis (reference value: 1.6 +/- 0.3); format: functional
[5] = Cmax in Sprague-Dawley rat at 3 mg/kg, po; format: ADME, organism-based; parameters: dose 3 mg/kg, route po; conditions: in vivo
Rattus norvegicus [6] = assay: as §1, with “10” for “3”; format: functional
Rattus norvegicus [7] = assay: Organ protective activity in aldosterone-induced uninephrectomized Sprague-Dawley rat model assessed as interstitial cellular infiltration in kidney by measuring pathological lesion score at 1 mg/kg/day by PAS and H and E staining based histological analysis (reference value: 1.4 +/- 0.4); format: functional
Rattus norvegicus [8] = assay: Organ protective activity in aldosterone-induced uninephrectomized Sprague-Dawley rat model assessed as renal tubular regeneration in kidney by measuring pathological lesion score at 3 mg/kg/day by PAS and H and E staining based histological analysis (reference value: 1.7 +/- 0.5); format: functional
[9] = Half life in Sprague-Dawley rat at 1 mg/kg, iv; format: ADME, organism-based; conditions: in vivo
Rattus norvegicus [10] = assay: Organ protective activity in aldosterone-induced uninephrectomized Sprague-Dawley rat model assessed as myocardial fibrosis in heart by measuring pathological lesion score at 3 mg/kg/day by sirius red and H and E staining based histological analysis (reference value: 1.6 +/- 0.3); format: functional
Rattus norvegicus [11] = assay: Organ protective activity in aldosterone-induced uninephrectomized Sprague-Dawley rat model assessed as renal tubular regeneration in kidney by measuring pathological lesion score at 1 mg/kg/day by PAS and H and E staining based histological analysis (reference value: 1.7 +/- 0.5); format: functional
Rattus norvegicus [12] = assay: Organ protective activity in aldosterone-induced uninephrectomized Sprague-Dawley rat model assessed as urinary cast in kidney by measuring pathological lesion score at 10 mg/kg/day by PAS and H and E staining based histological analysis (reference value: 1.4 +/- 0.4); format: functional
Rattus norvegicus [13] = assay: Organ protective activity in aldosterone-induced uninephrectomized Sprague-Dawley rat model assessed as glomerular mesangial proliferation in kidney by measuring pathological lesion score at 10 mg/kg/day by PAS and H and E staining based histological analysis (reference value: 1.9 +/- 0.5); format: functional
CHO-K1 = assay: Antagonist activity at human mineralocorticoid receptor S810L mutant expressed in CHO-K1 cells assessed as inhibition of aldosterone-induced transcriptional activity incubated for 24 hrs in presence of 0.5 nM aldosterone by Steady-Glo reagent based reporter gene assay relative to control; format: cell-based; parameters: scale not given: the % may be the effect or the level left; conditions: filed as antagonist
Rattus norvegicus [14] = assay: Organ protective activity in aldosterone-induced uninephrectomized Sprague-Dawley rat model assessed as glomerular mesangial proliferation in kidney by measuring pathological lesion score at 1 mg/kg/day by PAS and H and E staining based histological analysis (reference value: 1.9 +/- 0.5); format: functional
Androgen receptor = molecular target: T1, Androgen receptor (Homo sapiens, UniProt P10275)
T1 sequence (P10275 whole entry): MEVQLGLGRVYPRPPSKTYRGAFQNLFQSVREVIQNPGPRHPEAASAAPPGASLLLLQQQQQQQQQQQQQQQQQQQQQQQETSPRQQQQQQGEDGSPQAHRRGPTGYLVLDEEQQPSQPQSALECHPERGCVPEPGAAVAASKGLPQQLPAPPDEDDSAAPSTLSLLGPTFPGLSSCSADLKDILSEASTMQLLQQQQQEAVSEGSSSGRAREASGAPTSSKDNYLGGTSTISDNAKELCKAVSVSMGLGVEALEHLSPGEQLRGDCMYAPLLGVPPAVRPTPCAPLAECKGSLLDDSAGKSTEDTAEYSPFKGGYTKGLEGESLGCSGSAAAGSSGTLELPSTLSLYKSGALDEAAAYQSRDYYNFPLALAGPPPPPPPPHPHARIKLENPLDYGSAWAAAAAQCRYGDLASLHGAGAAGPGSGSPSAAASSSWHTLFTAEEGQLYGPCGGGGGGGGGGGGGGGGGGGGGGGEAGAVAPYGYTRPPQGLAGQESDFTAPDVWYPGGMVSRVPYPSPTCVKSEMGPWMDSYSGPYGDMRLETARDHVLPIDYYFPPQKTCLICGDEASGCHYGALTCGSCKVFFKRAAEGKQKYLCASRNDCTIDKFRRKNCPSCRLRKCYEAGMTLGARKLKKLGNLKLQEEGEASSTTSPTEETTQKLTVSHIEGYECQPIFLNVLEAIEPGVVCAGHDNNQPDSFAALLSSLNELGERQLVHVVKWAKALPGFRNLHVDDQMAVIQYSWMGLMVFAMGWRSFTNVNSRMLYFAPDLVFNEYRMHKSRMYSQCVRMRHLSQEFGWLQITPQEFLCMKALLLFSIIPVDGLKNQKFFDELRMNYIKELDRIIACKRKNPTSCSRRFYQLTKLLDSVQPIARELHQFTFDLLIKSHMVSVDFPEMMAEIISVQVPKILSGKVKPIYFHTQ
Description: Displacement of [3H]-methyltrienolene from human androgen receptor incubated overnight by liquid scintillation counting analysis

Rattus norvegicus [15] = assay: as §1, with “1” for “3”; format: functional
Rattus norvegicus [16] = assay: as §2, with “necrosis and interstitial cellular infiltration” for “fibrosis”, “10” for “1”, “1.7” for “1.6”; format: functional
Rattus norvegicus [17] = assay: Organ protective activity in aldosterone-induced uninephrectomized Sprague-Dawley rat model assessed as myocardial fibrosis in heart by measuring pathological lesion score at 10 mg/kg/day by sirius red and H and E staining based histological analysis (reference value: 1.6 +/- 0.3); format: functional
[18] = AUC (0 to infinity) in Sprague-Dawley rat at 1 mg/kg, iv; format: ADME, organism-based; parameters: time infinity, dose 1 mg/kg, route iv; conditions: in vivo

Question: For `CC1(C)Oc2cc(NS(C)(=O)=O)ccc2N(c2ccc(F)cc2)C1=O` [MT-3995], which clearance [1] is on record?
Answer: 1.91 mL/min/kg

Question: And the Activity (Rattus norvegicus [2])?
Answer: 0.4

Question: What about the AUC(0-inf) [3] of the same compound?
Answer: 25000 ng·h/mL

Question: And the Activity (Rattus norvegicus [4])?
Answer: 1.4

Question: And the Cmax [5]?
Answer: 1490 ng/mL

Question: What about the Activity (Rattus norvegicus [6]) of the same compound?
Answer: 0

Question: What about the Activity (Rattus norvegicus [7]) of the same compound?
Answer: 1.1

Question: And the Activity (Rattus norvegicus [8])?
Answer: 0.3

Question: What about the half-life [9] of the same compound?
Answer: 8.59 h

Question: What about the Activity (Rattus norvegicus [10]) of the same compound?
Answer: 0.3

Question: What about the Activity (Rattus norvegicus [11]) of the same compound?
Answer: 1.3

Question: And the Activity (Rattus norvegicus [12])?
Answer: 0

Question: And the Activity (Rattus norvegicus [13])?
Answer: 0

Question: And the Activity (CHO-K1)?
Answer: 98.2%

Question: What about the Activity (Rattus norvegicus [14]) of the same compound?
Answer: 1.3

Question: What about the IC50 (Androgen receptor) of the same compound?
Answer: > 100 µM

Question: And the Activity (Rattus norvegicus [15])?
Answer: 1.1

Question: And the Activity (Rattus norvegicus [16])?
Answer: 0.1

Question: And the Activity (Rattus norvegicus [17])?
Answer: 0

Question: And the AUC(0-inf) [18]?
Answer: 10200 ng·h/mL
